# From article PMC6675120, “Potent and selective inhibitors for M32 metallocarboxypeptidases identified from high-throughput screening of anti-kinetoplastid chemical boxes” (PLoS Neglected Tropical Diseases, 2019)
# Columns and labels:
# TbMCP-1 = TbMCP-1 (Trypanosoma brucei, UniProt Q386R0); assay: Continuous fluorogenic (FRET) TbMCP-1 assay with Abz-RFFK(Dnp)-OH, primary and secondary screening; assay type: biochemical; details: for TbMCP-1 2º/1º ratio: secondary (31,5 µM) / primary (25 µM) inhibition; for TbMCP-1 Primary screening Inhibition (%): single inhibitor concentration 25 µM; for TbMCP-1 Secondary screening Inhibition (%): single inhibitor concentration 31,5 µM; for TbMCP-1 Hill Slope: four-parameter Hill fit of dose-response curve
# TbMCP-1, sequence (Q386R0 entry or part of it): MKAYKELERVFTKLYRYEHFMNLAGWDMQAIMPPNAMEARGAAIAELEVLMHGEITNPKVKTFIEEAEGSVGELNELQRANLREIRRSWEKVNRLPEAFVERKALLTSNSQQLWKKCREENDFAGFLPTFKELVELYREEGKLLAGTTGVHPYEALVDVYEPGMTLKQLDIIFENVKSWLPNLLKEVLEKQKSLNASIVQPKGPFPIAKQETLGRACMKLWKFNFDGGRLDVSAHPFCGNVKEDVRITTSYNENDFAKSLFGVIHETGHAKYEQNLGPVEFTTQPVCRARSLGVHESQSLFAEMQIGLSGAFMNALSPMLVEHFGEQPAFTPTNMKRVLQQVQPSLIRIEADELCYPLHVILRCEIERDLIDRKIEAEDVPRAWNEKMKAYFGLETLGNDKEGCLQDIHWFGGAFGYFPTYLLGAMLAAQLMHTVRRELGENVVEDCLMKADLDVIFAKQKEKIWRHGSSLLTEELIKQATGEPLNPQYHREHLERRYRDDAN
# Description: (§1) TcMCP-1 (MEROPS ID: M32.003) and TbMCP-1 were expressed as GST fusion proteins in E. coli BL21 (DE3) Codon Plus and purified as previously described.
# (§2) TbMCP-1 and TcMCP-1 activities were assayed fluorometrically with Abz-RFFK(Dnp)-OH and Abz-LKFK(Dnp)-OH substrates, respectively, in 100 mM MOPS pH 7,2 containing 0,01% Triton X-100. Assays were performed in solid black 384-well plates (final reaction volume ~80 μL) and the hydrolysis of the K(Dnp)-OH group was monitored continuously at 30 °C with a Beckman Coulter DTX 880 Multimode Reader (Radnor, Pennsylvania, USA) using standard 320 nm excitation and 420 nm emission filter set.
# (§3) In all cases, EDTA (final concentration 31,25 mM) was used as positive inhibition control.
# (§4) Then, 40 μL of 100 mM MOPS, 0,01% Triton X-100 pH 7,2 containing TbMCP-1 (2,50 nM) or TcMCP-1 (0,34 nM) were added to each well, plates were homogenized (30 seg, orbital, medium intensity) and each well subjected to a single autofluorescence read (ex/em = 320/420 nm). Plates were incubated in darkness for 15 min at 30 °C and then 40 μL of Abz-RFFK(Dnp)-OH (4 μM) or Abz-LKFK(Dnp)-OH (0,8 μM) in assay buffer were added to each well to start the reaction. After homogenization (30 seg, orbital, medium intensity), the fluorescence of the Abz group (ortho-aminobenzoic acid) (ex/em = 320/420 nm) was acquired kinetically for each well (8 read cycles, one cycle every 300 seconds). Considering our previous experiences, the auto-fluorescent cut-off was arbitrarily set at 2x10^5 RFU to discard highly interfering compounds. All compounds were assayed in singlet (without replicates) due to the limited availability of stocks.
# (§5) Raw screening measurements were used to determine the slope (dF/dt) of progression curves by linear regression for control and non-interfering compound wells. In the case of control-dependent hit selection criteria, percent inhibition percentage (%Inh) was calculated for each compound according to the following equation: Inh=100∙[1−(dF/dt^WELL−μ^C−)/(μ^C+−μ^C−)] (1) where dF/dt^WELL represents the slope of each compound well and μ^C+ and μ^C− the average of MCP (no-inhibition) and substrate (no-enzyme) controls, respectively.
# (§6) To avoid any positional and/or association bias, we randomly defined the row position for each compound. One μL of compounds stock (10 mM in DMSO) and EDTA (31,25 mM) were added to the first well of column 1, followed by addition of 40 μL of 100 mM MOPS, 0,01% Triton X-100 pH 7,2 buffer. After addition of 20 μL of the same buffer to subsequent wells of the plate, 22 serial 2-fold dilutions were made horizontally. The last two positions of every row were used, alternatively, for C^+ and C^− controls to reduce any positional and/or association bias. Then, 20 μL of activity buffer containing TbMCP-1 or TcMCP-1 were added to each well, except for those corresponding to C^−; completed with 20 μL of activity buffer. After homogenization, 15 minutes of incubation at 30°C and autofluorescence measurement, the substrate (in activity buffer) was added to the previous mix. Data collection and processing were performed exactly as described above. Percentage of M32 MCPs residual activity was calculated for each condition according to the following equation: %Res.Act^MCP=100∙[(dF/dt^WELL−μ^C−)/(μ^C+−μ^C−)] (2) where dF/dt^WELL represents the slope of each compound well and μ^C+ and μ^C− the average of MCP (no-inhibition) and substrate (no-enzyme) controls, respectively.
# TcMCP-1 = TcMCP-1 (Trypanosoma cruzi, UniProt Q6ZXC0); assay: Continuous fluorogenic (FRET) TcMCP-1 assay with Abz-LKFK(Dnp)-OH, primary and secondary screening; assay type: biochemical; details: for TcMCP-1 Hill Slope: four-parameter Hill fit of dose-response curve; for TcMCP-1 2º/1º ratio: secondary (31,5 µM) / primary (25 µM) inhibition; for TcMCP-1 Primary screening Inhibition (%): single inhibitor concentration 25 µM; for TcMCP-1 Secondary screening Inhibition (%): single inhibitor concentration 31,5 µM
# TcMCP-1, sequence (Q6ZXC0 entry or part of it): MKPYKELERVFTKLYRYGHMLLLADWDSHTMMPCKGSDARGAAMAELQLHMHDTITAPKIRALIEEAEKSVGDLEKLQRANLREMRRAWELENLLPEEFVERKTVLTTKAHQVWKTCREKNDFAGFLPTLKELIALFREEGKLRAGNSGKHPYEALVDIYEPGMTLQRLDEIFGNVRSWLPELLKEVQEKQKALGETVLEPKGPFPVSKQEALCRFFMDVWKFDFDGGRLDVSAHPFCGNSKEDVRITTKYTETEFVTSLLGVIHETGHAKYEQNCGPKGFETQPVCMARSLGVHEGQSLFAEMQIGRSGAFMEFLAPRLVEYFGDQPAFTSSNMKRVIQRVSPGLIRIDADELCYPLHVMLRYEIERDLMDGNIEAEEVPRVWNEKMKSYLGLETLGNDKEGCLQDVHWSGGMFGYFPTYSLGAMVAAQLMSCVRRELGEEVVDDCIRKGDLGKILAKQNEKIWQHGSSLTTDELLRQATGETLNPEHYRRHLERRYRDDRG
# Description: as §1, §2, §3, §4, §5
# as §6, with “Compounds selected from primary screening were re-tested in a dose-response manner (final concentration ranging from […] to 62,5 μM) using identical assay conditions. To” for “To”
Compound,TbMCP-1 2º/1º ratio (TbMCP-1),TbMCP-1 Primary screening Inhibition (%) (TbMCP-1),TbMCP-1 Secondary screening Inhibition (%) (TbMCP-1),IC50 (TcMCP-1),TcMCP-1 Hill Slope (TcMCP-1),TcMCP-1 2º/1º ratio (TcMCP-1),TcMCP-1 Primary screening Inhibition (%) (TcMCP-1),TcMCP-1 Secondary screening Inhibition (%) (TcMCP-1),IC50 (TbMCP-1),TbMCP-1 Hill Slope (TbMCP-1)
O=C(NCC1CCCCC1)c1cc(=O)c2ccccc2o1 [TCMDC-123621],"-0,05","44,99%","-2,11%",–,–,–,–,–,–,–
CC(C)N(C(=O)CN1C(=O)C(N)C(=O)N(c2ccccc2)c2ccccc21)c1ccccc1 (centres unmarked) [TCMDC-143071],–,–,–,38.9 µM,"-1,235","0,63","45,44%","28,65%",–,–
COc1cccc(-c2cc(C(F)(F)F)nc(-n3ccc([N+](=O)[O-])n3)n2)c1 [TCMDC-143105],–,–,–,–,–,"0,34","52,36%","17,76%",–,–
N#Cc1cc([N+](=O)[O-])ccc1NC1CCCCCC1 [TCMDC-143143],"1,61","41,27%","66,27%",–,–,–,–,–,21.8 µM,"-1,466"
Cc1c([N+](=O)[O-])c(C(=O)Nc2sc3c(c2C#N)CCC(C)C3)nn1C (centres unmarked) [TCMDC-143155],"0,23","44,57%","10,36%",–,–,–,–,–,–,–
Cl.Cl.O=c1ccc2ccc(F)c3c2n1C[C@H]3CN1CCN(CC(O)c2cc3c(cn2)OCS3)CC1 (some centres unmarked) [TCMDC-143158],"1,19","44,84%","53,51%",–,–,–,–,–,27.6 µM,"-1,014"
O=C(c1cc2cc(Cl)ccc2[nH]1)N1CCCCC1c1cccnc1 (centres unmarked) [TCMDC-143159],"0,25","52,96%","13,07%",–,–,–,–,–,–,–
CC1=C(C(=O)Nc2ccc(Cl)cc2)C(c2ccncc2)n2ncc(C(=O)Nc3ccccc3)c2N1 (centres unmarked) [TCMDC-143187],"0,50","48,70%","24,44%",–,–,–,–,–,> 60 µM,–
Cc1ccc2c(c1)-c1onc(C(=O)N3CCCCC3c3cccnc3)c1CO2 (centres unmarked) [TCMDC-143191],"0,78","88,97%","69,40%",–,–,–,–,–,16.1 µM,"-1,267"
Cn1ccnc1CN1CCc2[nH]cnc2C1c1ccccc1OCc1ccccc1 (centres unmarked) [TCMDC-143242],–,–,–,26.5 µM,"-1,237","1,02","51,89%","52,68%",–,–
O=C(N[C@H](CO)c1ccccc1)c1ccc(-c2c[nH]c3nccc(C(F)(F)F)c23)s1 [TCMDC-143254],"0,78","45,94%","35,87%",–,–,–,–,–,43.4 µM,"-0,8163"
O=C(NNC(=O)c1ccccn1)c1ccc(-c2ccccc2)cc1 [TCMDC-143263],–,–,–,40.7 µM,"-0,9946","0,31","48,44%","14,84%",–,–
CN(C)S(=O)(=O)c1ccc(Cl)c(C(=O)Nc2nc(-c3ccccn3)cs2)c1 [TCMDC-143265],"0,40","59,46%","23,62%",–,–,–,–,–,44.2 µM,"-2,036"
CCC1Oc2cc(S(=O)(=O)N(C)CC(=O)N3CCc4ccccc4C3)c(C)cc2NC1=O (centres unmarked) [TCMDC-143332],"1,03","55,90%","57,63%",–,–,–,–,–,23.3 µM,"-1,063"
CC(=O)Nc1cccc(Nc2ncnc3nc[nH]c23)c1 [TCMDC-143399],"0,19","43,27%","8,15%",–,–,–,–,–,–,–
CN(C)c1ccc(-c2cc3nccnc3c(OC[C@H]3CCCNC3)n2)cn1.Cl [TCMDC-143408],–,–,–,32.9 µM,"-1,153","1,06","46,88%","49,75%",–,–
CC(C)Oc1cccc(N2CCC(C(=O)N3CCCN(C(C)C)CC3)CC2)c1.Cl [TCMDC-143432],–,–,–,26.3 µM,"-0,6129","1,27","42,37%","53,96%",–,–
Cc1c(Nc2cc(C3CC3)n[nH]2)ccc(C#N)c1Cl.O=C(O)C(F)(F)F [TCMDC-143454],"0,63","52,66%","33,23%",–,–,–,–,–,> 60 µM,–
CC(Cn1ccnc1)NC(=O)COc1ccc(Cl)c(Cl)c1 (centres unmarked) [TCMDC-143479],–,–,–,–,–,"0,31","42,39%","13,15%",–,–
Cc1cc(C#N)c([N+](=O)[O-])cc1Br [TCMDC-143541],"0,20","44,26%","8,89%",–,–,–,–,–,–,–
Cl.Cl.O=c1cc(NCCCNCc2cc(C(F)(F)F)cs2)[nH]c2ccccc12 [TCMDC-143645],"1,27","42,78%","54,13%",–,–,–,–,–,20.8 µM,"-1,127"
